US20240376056A1, “PHENYL ACETAMIDE BASED IL-17A MODULATORS AND USES THEREOF” (DiCE Alpha, Inc., priority 2021, published 2024)
pIC50: −log10 of the molar value.

The molecules below were run against T1, IL-17A/A (Homo sapiens, UniProt Q16552) (assay: HEK-Blue IL-17A/A inhibition assay (SEAP reporter)). Conditions: HEK-Blue cells (HEK 293 expressing IL-17RA, IL-17RC, Act1); IL-17A/A stimulation; 20 hours; SEAP read at A630; 4-parameter fit.
T1 construct: purchased Genscript Z03228
T1 sequence (Q16552 24-155): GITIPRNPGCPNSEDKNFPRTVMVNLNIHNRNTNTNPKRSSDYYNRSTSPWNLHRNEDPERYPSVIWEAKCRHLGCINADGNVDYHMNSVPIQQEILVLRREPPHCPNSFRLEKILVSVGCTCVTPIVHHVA
Type: cell-based
Description: The HEK-Blue #NC108637 […]. Cells were grown and prepared for assays according to the manufacturer's instructions. This cell line consists of HEK 293 cells that were designed to expressed IL-17R^A, IL-17RC, and the ActI adapter molecule, the combination of which. when stimulated by IL-17A/A activates a NFtcB promoter and drives expression of a recombinant Secreted Alkaline Phosphatase (SEAP) geneprotein. Media from the cells is then added to a development reagent (Quanti-Blue Substrate, Fisher #NC971 1613), and read at A630.
Compounds were titrated in DMSO. with a top final compound concentration of 10 uM, 1 uM, or 0.3 uM, and added to the cells immediately before adding IL-17A/A (Genscript #Z03228). The cells, compound, and IL-17A/A were then incubated for 20 hours before media was removed for SEAP analysis. The resulting inhibition curve was then analyzed using Graphpad Prism 7.0, and IC50 values were determined using a 4-parameter nonlinear fit. DMSO was added to a universal final concentration of 0.1% to optimze background.
In the case of Cc1cc(NC(=O)[C@@H](NC(=O)c2ccnn2C(C)C)C(C2CC2)C2CC2)c(F)cc1C(C)C(=O)N1CC(O)CC1C(F)(F)F (single isomer, unassigned) [Compound 200], the pIC50 was 6.00 to 7.00.
In the case of COc1cc(NC(=O)[C@@H](NC(=O)c2ccnn2C(C)C)C(C2CC2)C2CC2)c(F)cc1C(C)C(=O)N1CC(O)CC1C(F)(F)F (single isomer, unassigned) [Compound 212], the pIC50 was > 7.00.
Work on COc1cc(NC(=O)[C@@H](NC(=O)c2ccnn2C(C)C)C(C2CC2)C2CC2)c(F)cc1C(C)C(=O)N1CC(O)CC1C(F)(F)F (single isomer, unassigned) [Compound 213] yielded a pIC50 of 6.00 to 7.00.
Molecule CC(C(=O)NCC(F)(F)F)c1cc(F)c(NC(=O)[C@@H](NC(=O)c2ccnn2C(C)C)C2CCC(F)(F)CC2)cc1OC(F)(F)F (single isomer, unassigned) [Compound 219] has a pIC50 of 6.00 to 7.00.
CC(C(=O)NCC(F)(F)F)c1cc(F)c(NC(=O)[C@@H](NC(=O)c2ccnn2C(C)C)C2CCC(F)(F)CC2)cc1OC(F)(F)F (single isomer, unassigned) [Compound 220] was tested, and the pIC50 was < 6.00.
In the case of CC(C(=O)NC1CCC1(F)F)c1cc(F)c(NC(=O)[C@@H](NC(=O)c2ccnn2C(C)C)C(C2CC2)C2CC2)cc1C(F)(F)F (single isomer, unassigned) [Compound 230], the pIC50 was 6.00 to 7.00.
With CC(C(=O)NC1CCC1(F)F)c1cc(F)c(NC(=O)[C@@H](NC(=O)c2ccnn2C(C)C)C(C2CC2)C2CC2)cc1C(F)(F)F (single isomer, unassigned) [Compound 231] the pIC50 was 6.00 to 7.00.
In the case of CCn1nccc1C(=O)N[C@H](C(=O)Nc1cc(C(F)(F)F)c(C(C)C(=O)NC(CO)C(F)(F)F)cc1F)C(C1CC1)C1CC1 (single isomer, unassigned) [Compound 240], the pIC50 was > 7.00.
With CCn1nccc1C(=O)N[C@H](C(=O)Nc1cc(C(F)(F)F)c(C(C)C(=O)NC(CO)C(F)(F)F)cc1F)C(C1CC1)C1CC1 (single isomer, unassigned) [Compound 241] the pIC50 was < 6.00.
With CC(C(=O)NCC(F)(F)F)c1cc(F)c(NC(=O)[C@@H](NC(=O)c2ccnn2C(C)C)C(C2CC2)C2CC2)cc1Nc1ccccn1 (single isomer, unassigned) [Compound 261] the pIC50 was < 6.00.
With CC(C(=O)NCC(F)(F)F)c1cc(F)c(NC(=O)[C@@H](NC(=O)c2ccnn2C(C)C)C(C2CC2)C2CC2)cc1Nc1ccccn1 (single isomer, unassigned) [Compound 262] the pIC50 was < 6.00.
CCn1nccc1C(=O)N[C@H](C(=O)Nc1ccc(CC(=O)N(C)CC(F)(F)F)cc1F)C1CCCCCC1 [Compound 1, (S)-N-(1-cycloheptyl-2-((2-fluoro-4-(2-(methyl(2,2,2-trifluoroethyl)amino)-2-oxoethyl)phenyl)amino)-2-oxoethyl)-1-ethyl-1H-pyrazole-5-carboxamide] showed a pIC50 of 6.00 to 7.00.
CCn1nccc1C(=O)N[C@H](C(=O)Nc1ccc(CC(=O)NCC(F)(F)F)cc1F)C1CCCCCC1 [Compound 2, (S)-N-(1-cycloheptyl-2-((2-fluoro-4-(2-oxo-2-((2,2,2-trifluoroethyl)amino)ethyl)phenyl)amino)-2-oxoethyl)-1-ethyl-1H-pyrazole-5-carboxamide] was tested, and the pIC50 was 6.00 to 7.00.
For CCn1nccc1C(=O)N[C@H](C(=O)Nc1ccc(CC(=O)N(C)C2(C(F)(F)F)CC2)cc1F)C1CCCCCC1 [Compound 5, (S)-N-(1-cycloheptyl-2-((2-fluoro-4-(2-(methyl(1-(trifluoromethyl)cyclopropyl)amino)-2-oxoethyl)phenyl)amino)-2-oxoethyl)-1-ethyl-1H-pyrazole-5-carboxamide], the pIC50 was < 6.00.
CCn1nccc1C(=O)N[C@H](C(=O)Nc1ccc(C(C)(C)C(=O)NCC(F)(F)F)cc1F)C1CCCCCC1 [Compound 7, (S)-N-(1-cycloheptyl-2-((2-fluoro-4-(2-methyl-1-oxo-1-((2,2,2-trifluoroethyl)amino)propan-2-yl)phenyl)amino)-2-oxoethyl)-1-ethyl-1H-pyrazole-5-carboxamide] showed a pIC50 of 6.00 to 7.00.
